Test [1] relates to PAF (Platelet Activating Factor)-induced increase in TPR (Total Pulmonary Resistance). Briefly: Assay for anti-PAF activity in anesthetized guinea pigs (PAF-induced increase in total pulmonary resistance). The test is classed as in vivo, guinea pig. The conditions noted are these: for PAF-induced increase in TPR, % of Controls: n = 5, PAF Control 112.2. The protocol:
FIG. 5 is a graphical representation of results from an in vivo antagonism of PAF (Platelet Activating Factor)-induced increase in TPR (Total Pulmonary Resistance) by the compound of the invention, designated CPR 3003.
Assay for Anti-PAF Activity in Anesthetized Guinea Pigs
Guinea pigs of 650-1000 g were used in order to facilitate catheterization of the jugular vein and carotid artery. The guinea pigs were anesthetized with 35-45 mg/kg pentobarbital sodium. When or if the recordings described below were unstable, anesthetic additions were made during the course of the intervention. The cutdown was a ventral medial incision over the cervical area so that the trachea, jugular vein and carotid artery could be cannulated. The animals were immediately attached to a volume regulated Harvard® rodent respirator, Model 683, via a tracheostomy and the respirator was set at 60 respirations per minute and a volume of 8 ml/kg to maintain a normal arterial PCO2 of approximately 40 mm Hg. Pancuronium bromide, a muscle relaxant, was then given intravenously at a dose of 0.2 mg/kg to prevent spontaneous breathing. A tube was connected to the respirator pump and the endotracheal catheter was attached to a pressure-transducing strain gauge and then to a 2-channel Gilson® physiological recorder. One channel of the recorder inscribed the pressure tracing from the airway; the second channel inscribed the pressure tracing from a similar strain gauge attached directly to a catheter inserted into the carotid artery. These two parameters were measured before and after each drug was given and at each increment in the dose response studies with each drug candidate and recorded. Total pulmonary resistance (TPR) was calculated as the difference between the expiratory pressure and inspiratory pressures with a constant volume.
After the anesthetic and muscle relaxant were given, the animal was allowed to stabilize. The airway was gently suctioned with a syringe and the lungs are briefly inflated by closing the expiratory port on the ventilator until the pressure was approximately three times resting pressure. When the pressure returned to a steady state, this TPR was considered control pressure. The dose-related increases or decreases were quantitated against these controls to determine the percent inhibition of PAF activity. Two doses of PAF were given as controls before the test compound was administered.
Decreases of TPR in a dose-related way indicate an inhibition of the constrictor activity of PAF on the airway.

Test [2] concerns RAW 264.7 murine monocyte/macrophage line. The test can be described thus: Assay for anti-inflammatory activity by inhibition of macrophage chemiluminescence (RAW 264.7, PMA, luminol). The format is cell-based. As to conditions: 1 minute. The text has this: FIG. 4 is a graphical representation of results from an in vitro RAW 264.7 cell macrophage inhibition chemiluminescence assay of two compounds of the invention, designated CPR 3003 and CPR 3004.
Assay for Anti-inflammatory Activity by Inhibition of Macrophage Chemiluminescence
The RAW 264.7 cell line (available from the ATCC under accession no. TIB 71) is a murine monocyte/macrophage line the cells of which show many of the differentiative functions of a macrophage. Like macrophages, the cells are capable of phagocytosis and undergo a respiratory burst (increased oxygen consumption) and production of oxygen radicals (e.g., superoxide) in response to appropriate activation signals. Agents that inhibit the activation of these cells in vitro, so as to inhibit the respiratory burst and corresponding production of oxygen radicals associated with the activation, are therefore inhibitors of macrophage activation and critical steps in inflammatory processes. These agents are likely, then, to be anti-inflammatories.
The respiratory burst and corresponding production of oxygen radicals that accompany macrophage activation can be measured in a variety of ways, including chemiluminescence based on the reaction of the oxygen radicals with luminol added to the culture medium (see M. A. Trush et al, 1978, "The Generation of Chemiluminescence by Phagocytic Cells." Methods in Enzymology 57: 462-494). Indeed, chemiluminescence generated from luminol in the culture medium of macrophage cell lines is recognized in the art as a marker of macrophage activation.
1. Cell line: RAW 264.7 (ATCC TIB 71);
2. Culture medium: DMEM with 10% FBS (attachment dependent);
3. Standard protocol for culturing cell lines: in T-75 or T-150 flasks; 37° C.; 95% air, 5% CO2; 100% humidity;
4. Cell lines are passaged when approximately 80% confluent with trypsin (1 mg/mL) and EDTA ([…] in Ca-Mg free Hank's balanced salt solution), at a 1:4 to 1:5 split;
5. Trypsinize the cells and count with a hemocytometer;
6. Adjust concentration of cells to approximately 1,000,000 cells per mL;
7. Suspend cells in DMEM lacking phenol red and without FBS;
8. Pipette 1 mL, into a standard luminometer cuvet (12×75), commercially available from Analytical Luminescence Laboratories (San Diego, Calif.);
9. Add luminol to final concentration of 1 μM;
10. Add test compound at concentrations of 0, 1, 3, 10, or 30 μM;
11. Add 100 nanograms of phorbol myristate acetate (PMA);
12. Wait 1 minute and read photo counts (i.e., luminescence) on a Monolight 2010 luminometer available from Analytical Luminescence Laboratories;
13. The results are represented in FIG. 4, which illustrates the marked decrease in measured luminescence by the compounds tested at concentrations above 1 μM. Results are calculated as percent of control (no test compound present);
14. The results are also presented in Table 1, which tabulates the measured luminescence units at the indicated concentration of tested compound.

Test [3] deals with PAM-212 murine keratinocyte cell line. The test can be described thus: Assay for anti-psoriatic activity by inhibition of keratinocyte proliferation (PAM-212). The conditions noted are these: Mus musculus, PAM212; PAM-212, 48 hours, FIG. 3; read-out: marked inhibition of keratinocyte-proliferation at concentrations above. The format is cell-based, murine (BALB/c mice). The text has this: FIG. 3 is a graphical representation of results from an in vitro PAM-212 cell inhibition assay of two compounds of the invention, designated CPR 3003 and CPR 3004.
Assay for Anti-psoriatic Activity by Inhibition of Keratinocyte Proliferation
1. Cell line: PAM-212 murine keratinocyte cell line isolated and cultivated from newborn BALB/c mice (see S. H. Yuspa et al., Cancer Research, 40, 4694-4703, December, 1980) that appears to retain many characteristics of normal keratinocytes.
2. Culture medium: 1:1 DMEM and Ham's F-12 with 10% FBS.
3. Culture conditions are the same as those described previously in parts 3(a) and 3(b) of Example 9.
4. Methodology is the same as that described previously in part 4 of Example 9, except that, with reference to part 4 (b), cell concentration is adjusted to 1,000 cells per 100 μL (rather than 5,000 cells per 100 μL), and, with reference to part 4(e), test compounds are diluted in DMEM/F12 prior to addition to cell wells.
5. End point determination and data analysis are done as described previously in parts 5 and 6 of Example 9.

The test system of test [4] is MDA-MB-231 estrogen receptor negative human breast carcinoma cell line. Briefly: in vitro MDA-MB-231 cell inhibition assay (anti-tumor/antineoplastic activity, sulforhodamine B). The format is cell-based. As to conditions: MDA-MB-231, 48 hours, 0 to 100 μM, FIG. 1, read-out: marked inhibition of cell growth at concentrations above. The source says: FIG. 1 is a graphical representation of results from an in vitro MDA-MB-231 cell inhibition assay of two compounds of the invention, designated CPR 3003 and CPR 3004.
(§1) Assay for Anti-Tumor/Antineoplastic Activity
(§2) 1. Human tumor cell lines, available from the American Type Culture Collection (ATCC):
a. MDA-MB-231 (ATCC HTB 26): an estrogen receptor negative human breast carcinoma cell line (attachment dependent); and
a. for cell line 1-a: Dulbecco's Modified Eagle's Medium (DMEM) plus 10% Fetal Bovine Serum (FBS); and
(§3) 3. Standard protocol for culturing cell lines: in T-75 or T-150 flasks; 37° C.; 95% air, 5% CO2; 100% humidity.
(§4) a. Cell lines 1-a and 1-b are passaged when approximately 80% confluent; with trypsin (1 mg/mL) and EDTA (1 mM EDTA in Ca-Mg free Hank's balanced salt solution); at a 1:4 to 1:5 split.
b. […]
(§5) h. Read absorbance at 564 nm using a standard 96-well microtiter plate reader. Absorbance readings are linear with dye concentrations below 1.8 absorbance units. To reduce absorbance, decrease wavelength at which measurements are taken.
(§6) a. For a single point reading, a higher absorbance indicates a higher cell number; […]
(§7) d. Calculate CN (cell number as % of Control): [formula] where A(test compound) is absorbance with test compound present in the culture medium, A(control) is absorbance of control, and A(background) is absorbance of background;

For test [5], the system named is HT-29 human colon carcinoma cell line. Briefly: in vitro HT 29 cell inhibition assay (anti-tumor/antineoplastic activity, sulforhodamine B). The format is cell-based. As to conditions: HT-29, 48 hours, 0 to 100 μM, FIG. 2, read-out: marked inhibition of cell growth at concentrations above.
Excerpt: FIG. 2 is a graphical representation of results from an in vitro HT 29 cell inhibition assay of two compounds of the invention, designated CPR 3003 and CPR 3004.
as §1, §2
b. HT-29 (ATCC HTB 38): a human colon carcinoma cell line (attachment dependent).
b. for cell line 1-b: 1:1 DMEM and Ham's F-12 (DMEM/F12) plus 10% FBS.
as §3, §4
b. All procedures are performed aseptically in a Class II biological safety cabinet using standard BL-2 containment procedures. […]
as §5, §6, §7

For test [6], the system named is tumor. As to conditions: Andreesen, Prog. Biochem. Pharmacol. 22, 118-131; cited from earlier work.

For the compound `CCCCCCCCCCCCCCCCCCOCC(COP(=O)(O)OCCNC1=NCCN1C1=NCCN1)OC` (stereo not shown) [CPR 3003, 1-O-n-octadecyl-2-O-methyl-glycero-3-phospho-N-[3-(2-imidazolinyl)-2-imidazolinyl]-ethanolamine], the “PAF-induced increase in TPR, % of Controls” value is reported as 110 % of Controls in test [1] (1 μM), 7 % of Controls in test [1] (10 μM) and 232.2 % of Controls in test [1] (.1 μM). The “change of PAF-induced increase in TPR” value in test [1] (incremental doses of 0.1, 1, and 10 μM) is recorded as “change the PAF-induced increase in TPR in all animals”. Further, the measured luminescence in test [2] (1 μM test compound) was 2,051,640 Luminescence Units; in test [2] (3 μM test compound), 755,617 Luminescence Units; in test [2] (10 μM test compound), 224,213 Luminescence Units; in test [2] (30 μM test compound), 18,228 Luminescence Units. The minimal effective concentration was more than 10 µM in test [3], more than 3 µM in test [4] and more than 3 µM in test [5].

For `CCCCCCCCCCCCCCCCCCOC[C@H](COP(=O)([O-])OCC[N+](C)(C)C)OC` [ET 18-OCH3, 1-O-octadecyl-2-O-methyl-sn-glycero-3-phosphocholine], in test [6], the anti-tumor activity entry is “markedly potent anti-tumor activity”.

Regarding `CCCCCCCCCCCCCCCCCCOCC(COP(=O)(O)OCCNC1=NCCN1)OC` (stereo not shown) [CPR 3004, 1-O-n-octadecyl-2-O-methyl-glycero-3-phospho-N-(2-imidazolinyl)-ethanolamine], the measured luminescence is recorded as 524,414 Luminescence Units in test [2] (1 μM test compound), 134,836 Luminescence Units in test [2] (3 μM test compound), 23,849 Luminescence Units in test [2] (10 μM test compound) and 6,128 Luminescence Units in test [2] (30 μM test compound). Further, the minimal effective concentration is more than 10 µM in test [3], more than 3 µM in test [4] and more than 3 µM in test [5].

The record behind these values is patent US5665714A, “N-substituted glycerophosphoethanolamines” (Clarion Pharmaceuticals Inc., priority 1996, dated 1997).
